Assay results taken from a melting point compilation (Tetko et al.; mined from patent text by program, amines drawn as free bases though some values may be those of a salt).

Structure (SMILES) | melting point
CCCCCCCCCCOc1ccc(C(=O)NNC(=O)C(F)(F)C(F)(F)C(F)(F)F)cc1 | 88 °C
COc1ccc(N2CCN(c3ccc(-n4cnn(C)c4=O)cc3)CC2)cc1 | 246 °C
Cc1nc(-n2ccc(O)cc2=O)sc1C(=O)NCCc1ccc(F)cc1 | 225 to 227 °C
CCOC(=O)c1cn(C2CC2)c2c(OC(F)F)c(F)c(F)cc2c1=O | 224 to 226 °C
NCCNc1cccc2cn[nH]c12 | 166 to 168 °C
CCCCCC(=O)Nc1ccc(NNC(=O)N(C)c2cccc3c2C(=O)N(C)C3=O)cc1 | 115 to 118 °C
O=C(O)CCC(O)c1ccc(-c2ccc(F)cc2F)cc1 (stereo not given) | 111 to 112 °C
COC(=O)C1CCC2C3CCC4CC(C)(O)CCC4(C)C3C(=O)CC12C (stereo not given) | 150 °C
CC12CCC(=O)C=C1CCC1C2C(F)CC2(C)C(O)CCC12 (stereo not given) | 161 to 162 °C
CCOC(=O)C1(C(=O)Nc2ccc(Br)cc2C)CCCC1 | 64 to 67 °C
CC1(C)NC(=O)N(CC(O)Cc2cc(C(C)(C)C)c(O)c(C(C)(C)C)c2)C1=O (stereo not given) | 175 to 176 °C
O=c1ccc2cnc(Nc3ccccn3)nc2n1C1CCCC1 | > 250 °C
CC(=O)N1c2ccccc2NC(=O)c2cscc21 | 228 to 230 °C
CSc1nc(=O)n(C(C)(C)C)c(=O)[nH]1 | 112 to 115 °C
O=C1COC(COc2ccccc2Cc2cccs2)CN1Cc1ccccc1 (stereo not given) | 97 to 99 °C
CN(C)C(=O)n1oc(CCl)c(Cl)c1=O | 107 to 108 °C
O=C1C=Cc2ccccc2C1(Cc1ccncc1)Cc1ccncc1 | 111 to 112 °C
Cc1ccc(S(=O)(=O)C(CCCCCOc2ccc(Cl)cc2)C(=O)O)cc1 (stereo not given) | 88 to 90 °C
CN1C(C(=O)Nc2ccccn2)=C(OCOC(=O)c2ccccc2)c2ccccc2S1(=O)=O | 149 to 150 °C
CCCN1CCc2ccc(C(=O)CCC(=O)N3CCC(c4ccc(Cl)cc4)CC3)cc2CC1 | 151 to 152 °C
CC(C)Cn1c(=O)n(C)c(=O)c2c(SCC(C)O)c(Cc3cccc4ccccc34)sc21 (stereo not given) | 126 to 128 °C
C=C[C@H]1CN(c2c(F)cc3c(=O)c(C(=O)O)cn4c3c2OC[C@@H]4C)C[C@H]1N | 238 to 240 °C
CCOC(=O)c1c(C(F)(F)F)nc(C(F)(F)F)c(C(=O)OCC)c1Br | 56 to 61 °C
Cc1nnc2c(C(C)Br)ccnn12 (stereo not given) | 125 to 128 °C

Structure (SMILES) | melting point
CC(=O)OC1C(CO)OC(n2c(=O)sc3cnc(N)nc32)C1OC(C)=O (stereo not given) | 109 to 111 °C
CCOC(=O)C1=C(C)NC(C)=C(C(=O)OCCN2C(=O)c3ccccc3C2=O)C1c1cccc([N+](=O)[O-])c1 (stereo not given) | 194 to 195 °C
CC(CCN1c2cccc3cccc(c23)S1(=O)=O)N1CCN(c2ccc(F)cc2)CC1 (stereo not given) | 122 °C
CC(C)(C)c1cc(Cl)c2c(c1)-c1ccccc1P(=O)(O)O2 | 240 °C
COc1ccc(NC(=O)NC2C(=O)Nc3ccccc3N(CCC(C)C)C2=O)cc1 (stereo not given) | 150 to 152 °C
COc1cccc2c(NCc3ccccc3C)nc(N)nc12 | 274 to 275 °C
Cn1c(=O)c2c(nc(N3CCC(NC(=O)OC(C)(C)C)C3)n2Cc2ccccc2Br)n(C)c1=O (stereo not given) | 104 to 106 °C
Cc1nc(C)c(Cl)c(NCc2ccc(OCc3ccccc3)cn2)n1 | 130 to 131 °C
COC(=O)c1cccc(NC(=O)c2ccc(OC)c(N)c2)c1 | 160 to 162 °C
CCc1nc2c(N)nc3cc(/C=C/C(=O)N4CCOCC4)ccc3c2n1CC1CCOCC1 | > 260 °C
COC(=O)C1=C(C)Nc2nccn2C1C1CCCCC1 (stereo not given) | 178 °C
Cc1ccc(-n2nc3c(c2O)-c2ccccc2CC3)nc1 | 156 to 157 °C
O=C(Nc1ccc(Cl)cc1)N(CCCN1CCC(Cc2ccccc2)CC1)c1ccc(Cl)c(Cl)c1 | 128 to 131 °C
CCC(=O)N(C)c1nc(Cl)c([N+](=O)[O-])s1 | 132 to 133 °C
CC(C)CN1C(=O)[C@H](CC(=O)O)O[C@@H](c2ccccc2Cl)c2cc(Cl)ccc21 | 183 to 186 °C
O=C1C=C(C(F)(F)F)N(Br)CN1c1ccc(C(F)(F)F)cn1 | 142 to 143 °C
S=C1Cc2c([nH]c3ccc(Br)cc23)-c2ccccc2N1 | > 330 °C
CC(C)NC(=O)c1nc(-c2ccccc2F)c(-c2ccc(=O)n(C(C)C)n2)s1 | 129 to 130 °C
CC1C=CCCC1C(O)C(N)=O (stereo not given) | 149 to 151 °C
CC(C)CCC1CCCCCc2c1oc(=O)c(C(c1ccccc1)C1CC1)c2O (stereo not given) | 83 to 88 °C
NS(=O)(=O)c1cccc(NC(=O)c2cnn3c(C(F)(F)F)cc(-c4ccc(Cl)c(Cl)c4)nc23)c1 | 302 °C
O=C1CC(C(F)(F)F)CC(=O)N1c1cc(OCSc2ccccc2)c(Cl)cc1F | 108 to 110 °C
COc1ccccc1CN[C@H]1CCCN(CCO)[C@H]1c1ccccc1 (relative stereo) | 148 to 149 °C
CC(=O)OC1CCC2(C)C(=CC(=O)C3C2CCC2(C)C(OC(C)=O)CCC32)C1 (stereo not given) | 220 to 221 °C

Structure (SMILES) | melting point
CC(C)(C)N(CCc1ccccc1)NC(=O)c1ccccc1 | 150 to 152 °C
COC(=O)c1c(C)cccc1[N+](=O)[O-] | 44 to 45 °C
Cc1sc(C)c(NC(=S)Nc2c(Cl)cccc2Cl)c1N | 143 to 148 °C
CCc1noc(-c2cc3c4cc(S(=O)(=O)N(C)C)ccc4n(CCCCl)c3cn2)n1 | 223 to 224 °C
Brc1cccc2nonc12 | 92 to 94 °C
CC1(C)CC(=C(c2ccc(O)cc2)c2ccc(OCCO)cc2)CC(C)(C)C1 | 154 to 155 °C
CN1CCN(CC2CCCCN2CC(=O)N2c3ccccc3C(=O)Nc3cccnc32)CC1 (stereo not given) | 203 to 205 °C
CC(C(=O)O)C1CCC(C)(CCC2(C)C(C)CCC3(C)C(C)(C)CCCC23O)OO1 (stereo not given) | 157 to 159 °C
O=C(c1ccccc1F)c1cc(Cl)ccc1C(=O)C(Br)CN1C(=O)c2ccccc2C1=O (stereo not given) | 125 to 128 °C
CC(=O)OC1CC2C=CC3C4CCC(C(C)CCCC(C)C)C4(C)CCC3C2(C)C(OC(C)=O)C1 (stereo not given) | 116 to 118 °C
COc1ccc(NC(=O)c2cc([N+](=O)[O-])ccc2NC(=O)CF)c(C)c1 | 237 to 239 °C
Nc1cccc(CCC(=O)Nc2ccc(Nc3ccccc3)cc2)c1 | 164 to 166 °C
Nc1cccc(-c2cccc(-c3nc(-c4ccc(C(F)(F)F)cc4)cc(C(F)(F)F)n3)c2)c1 | 156 °C
COc1ccc(/C=C/C(=O)Nc2cc(OC)c(OC)cc2C(=O)O)cc1OC | 236 to 239 °C
CC1(C)C(=O)c2c(cc(OCC(=O)O)c(Cl)c2Cl)C1c1ccccc1 (stereo not given) | 163 to 164 °C
CN1CC(CNC(=N)NC(=O)c2cccnc2)CC2c3cccc4c3c(cn4C)CC21 (stereo not given) | 207 to 209 °C
CC1(C)OC(=O)C(=C(Nc2ccccc2Br)N2CCOCC2)C(=O)O1 | 212 to 213 °C
CN(c1ccc(-c2ccc(C(=N)N)cc2)nn1)[C@H]1CC[C@H](C(=O)O)CC1 | 308 to 310 °C
COC(=O)CCc1cc2ccccc2n1S(=O)(=O)c1ccccc1 | 95 to 99 °C
Cc1nc(C)c(-c2ccnc(Nc3ccc(Cl)c(CO)c3)n2)s1 | 245 to 246 °C
COc1ccc(C#Cc2ccc(OC3CN4CCC3CC4)cc2)cc1 (stereo not given) | 112 to 115 °C
COc1ccc(Cl)cc1C(C)(C)c1cc(Cl)ccc1O | 137 °C
